# Laboratory results taken from US20240383905A1, “FGFR INHIBITORS AND METHODS OF USE THEREOF” (3H PHARMACEUTICALS CO., LTD., priority 2021, published 2024).
# pIC50: −log10 of the molar value. Where two headings read alike, the source gives them in different places.
# How the values were obtained:
# SNU16 cells = assay: SNU16 Cancer Cell Line Proliferation Assay (CellTiter-Glo); format: cell-based; details: Homo sapiens, SNU-16, 72 h
# How it was run: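 SNU16 cells at 5000/well exposed to 9-point 3-fold serial compound dilutions (DMSO control) for 72 h at 37 °C, 5% CO2. Viability read by luminescence; IC50 calculated from dose-response.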
# FGFR1 = target: T1, FGFR1 (Homo sapiens, UniProt P11362); assay: FGFR1 Biochemical Caliper Assay (KinEASE-TK kit); details: ratio FGFR1/FGFR2 of the biochemical assay
# T1 construct: purchased Carna 08-133
# How it was run: (§1)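 KinEASE-TK HTRF readout: enzyme at 0.2 nM (FGFR1, FGFR3) preincubated 10 min at RT with 10-point 3-fold compound dilutions before TK-substrate/ATP start.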
# [1] = Pharmacokinetics in SD Rat; format: in vivo, Sprague-Dawley (SD) rat; details: male SD rat, plasma
# Method: Animal studies were done as approved protocols by the Institutional Animal Care and Use Committee at INVIVO Biotech Co., Ltd.
# Animal information: Sprague-Dawley (SD) rat, SPF, 6-8 weeks, Male, weight 200-250 g, purchased from Beijing Vital River Lab (Beijing, People's Republic of China).
# Formulation: Prepare 1.5 mg/ml and 0.6 mg/ml compound solution in […](20% HPβCD) for PO and IV respectively, dosing immediately after preparation.
# Administration: PO and IV;
# FGFR2 = target: T2, FGFR2 (Homo sapiens, UniProt P21802); assay: FGFR2 Biochemical Caliper Assay (KinEASE-TK kit); details: 0.07 nM FGFR2; compound incubated with protein 10 min, reaction 45 min at RT; read-out: FGFR2 Cliper IC50
# T2 construct: purchased Carna 08-134
# FGFR3 = target: T3, FGFR3 (Homo sapiens, UniProt P22607); assay: FGFR3 Biochemical Caliper Assay (KinEASE-TK kit); details: ratio FGFR3/FGFR2 of the biochemical assay
# T3 construct: purchased Carna 08-135
# How it was run: as §1
# [2] = Sprague-Dawley, PO 15 mg/kg (IV used for Clearance)
# [3] = Sprague-Dawley, PO 15 mg/kg (IV used for Clearance), read-out: Cmax
# [4] = PO 15 mg/kg (IV used for Clearance)
# T2 sequence (P21802 22-821): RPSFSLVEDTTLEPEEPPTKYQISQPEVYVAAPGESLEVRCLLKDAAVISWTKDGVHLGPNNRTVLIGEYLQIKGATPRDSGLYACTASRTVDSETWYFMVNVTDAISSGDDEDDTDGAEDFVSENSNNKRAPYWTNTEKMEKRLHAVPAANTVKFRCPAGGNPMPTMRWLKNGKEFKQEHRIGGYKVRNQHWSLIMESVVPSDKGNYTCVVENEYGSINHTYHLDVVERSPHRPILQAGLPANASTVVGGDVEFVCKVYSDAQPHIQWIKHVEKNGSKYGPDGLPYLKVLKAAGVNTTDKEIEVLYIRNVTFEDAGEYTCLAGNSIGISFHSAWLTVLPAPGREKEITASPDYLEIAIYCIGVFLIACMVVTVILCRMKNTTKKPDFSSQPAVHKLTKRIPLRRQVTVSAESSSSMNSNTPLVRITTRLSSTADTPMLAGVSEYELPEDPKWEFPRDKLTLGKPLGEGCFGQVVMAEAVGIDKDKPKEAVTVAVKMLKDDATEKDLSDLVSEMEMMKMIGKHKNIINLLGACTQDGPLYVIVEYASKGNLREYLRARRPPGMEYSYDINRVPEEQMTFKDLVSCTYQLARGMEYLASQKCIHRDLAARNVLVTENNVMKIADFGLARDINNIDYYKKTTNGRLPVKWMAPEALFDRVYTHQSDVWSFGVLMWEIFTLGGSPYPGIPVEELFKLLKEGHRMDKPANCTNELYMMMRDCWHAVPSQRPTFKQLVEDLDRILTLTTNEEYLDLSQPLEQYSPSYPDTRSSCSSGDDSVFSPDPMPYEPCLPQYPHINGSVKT
# T1 sequence (P11362 22-822): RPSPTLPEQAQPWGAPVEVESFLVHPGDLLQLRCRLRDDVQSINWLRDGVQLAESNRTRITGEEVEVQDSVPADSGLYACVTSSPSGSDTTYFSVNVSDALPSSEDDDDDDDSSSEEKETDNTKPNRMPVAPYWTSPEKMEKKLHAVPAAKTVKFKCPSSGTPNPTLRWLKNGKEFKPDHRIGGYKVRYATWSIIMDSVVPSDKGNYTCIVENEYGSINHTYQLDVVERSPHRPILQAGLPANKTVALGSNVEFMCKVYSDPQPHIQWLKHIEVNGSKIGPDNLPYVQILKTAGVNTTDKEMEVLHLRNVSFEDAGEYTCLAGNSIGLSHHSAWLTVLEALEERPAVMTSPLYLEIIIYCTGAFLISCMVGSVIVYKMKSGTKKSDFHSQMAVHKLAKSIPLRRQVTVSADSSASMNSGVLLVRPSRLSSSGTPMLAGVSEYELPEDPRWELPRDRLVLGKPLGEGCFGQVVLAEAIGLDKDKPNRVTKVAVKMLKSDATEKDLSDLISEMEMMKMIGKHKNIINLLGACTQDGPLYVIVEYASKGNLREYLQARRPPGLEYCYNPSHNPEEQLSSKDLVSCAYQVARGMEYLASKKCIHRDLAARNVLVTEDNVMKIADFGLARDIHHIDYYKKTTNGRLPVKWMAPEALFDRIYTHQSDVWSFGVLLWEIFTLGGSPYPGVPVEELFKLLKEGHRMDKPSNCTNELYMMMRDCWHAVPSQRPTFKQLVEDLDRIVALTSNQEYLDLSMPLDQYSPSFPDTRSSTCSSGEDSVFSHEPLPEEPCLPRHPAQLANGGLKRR
# T3 sequence (P22607 23-806): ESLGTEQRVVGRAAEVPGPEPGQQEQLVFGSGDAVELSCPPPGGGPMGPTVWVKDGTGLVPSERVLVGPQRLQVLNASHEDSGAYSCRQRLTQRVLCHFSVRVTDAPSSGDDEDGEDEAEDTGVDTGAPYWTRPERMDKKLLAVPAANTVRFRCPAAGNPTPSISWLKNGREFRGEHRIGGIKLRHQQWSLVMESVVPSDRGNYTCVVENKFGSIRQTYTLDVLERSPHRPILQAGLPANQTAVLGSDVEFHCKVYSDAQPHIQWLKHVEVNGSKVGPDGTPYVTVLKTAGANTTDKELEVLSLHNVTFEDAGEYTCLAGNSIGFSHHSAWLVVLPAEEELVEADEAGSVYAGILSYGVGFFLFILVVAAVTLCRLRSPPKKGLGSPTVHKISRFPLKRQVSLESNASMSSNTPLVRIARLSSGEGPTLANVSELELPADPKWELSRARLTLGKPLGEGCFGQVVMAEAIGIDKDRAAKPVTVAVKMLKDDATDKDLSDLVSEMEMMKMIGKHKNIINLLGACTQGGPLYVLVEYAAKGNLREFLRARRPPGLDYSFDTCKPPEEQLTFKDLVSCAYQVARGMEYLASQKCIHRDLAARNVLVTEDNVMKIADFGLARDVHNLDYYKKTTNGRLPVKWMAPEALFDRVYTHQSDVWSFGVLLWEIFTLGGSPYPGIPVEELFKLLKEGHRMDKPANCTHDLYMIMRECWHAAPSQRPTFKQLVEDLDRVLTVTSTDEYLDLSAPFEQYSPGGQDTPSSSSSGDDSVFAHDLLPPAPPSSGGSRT
pIC50 (SNU16 cells),"clearance ([1]; Sprague-Dawley, IV 3 mg/kg) [mL/min/kg]","AUC(0-inf) [1, 2] [ng·h/mL]","half-life [1, 2] [h]","Cmax [1, 3] [ng/mL]",pIC50 (FGFR2),SMILES,Selectivity FGFR1/FGFR2 (FGFR1),Selectivity FGFR3/FGFR2 (FGFR3),Cl ([1]; IV 3 mg/kg) [mL/min/kg],"AUC0-∞ [1, 4] [ng·h/mL]","Cmax [1, 4] [ng/mL]","T1/2 [1, 4] [h]"
≥ 8.00,8.4,4570,3.6,1390,8.00 to 8.30,"C=C(F)C(=O)Nc1ccc(-c2nn3ncnc(N)c3c2-c2ccc(C(=O)NC3CC3(F)F)c(OC)c2)cc1 (stereo not drawn) [Compound 193, 4-(4-amino-6-(4-(2-fluoroacrylamido)phe-nyl)pyrazolo[5,1-f][1,2,4]triazin-5-yl)-N-(2,2-difluorocyclopropyl)-2-methoxybenzamide]",A+ (Selectivity of FGFR1/FGFR2 greater or equal to 500),A+ (Selectivity of FGFR3/FGFR2 greater or equal to 150),–,–,–,–
–,–,–,–,–,–,"C=C(F)C(=O)Nc1ccc(-c2nn3ncnc(N)c3c2-c2ccc(C(=O)NC34CC(C3)C4)c(OC)c2)cc1 [Compound 270, 4-(4-amino-6-(4-(2-fluoroacrylamido)phe-nyl)pyrazolo[5,1-f][1,2,4]triazin-5-yl)-N-(bicyclo[1.1.1]pentan-1-yl)-2-methoxybenzamide]",–,–,18,3384,978,2
–,18,3230,1.8,1300,–,"C=C(F)C(=O)Nc1ccc(-c2nn3ncnc(N)c3c2-c2ccc(C(=O)NCC(F)(F)F)c(OC)c2)cc1 [Compound 71, 4-(4-amino-6-(4-(2-fluoroacrylamido)phenyl)pyrazolo[5,1-f][1,2,4]triazin-5-yl)-2-methoxy-N-(2,2,2-trifluoroethyl)benzamide]",–,–,–,–,–,–
–,16,2970,1.1,1190,–,C=C(F)C(=O)Nc1ccc(-c2nn3ncnc(N)c3c2-c2ccc(C(=O)NCCC(F)(F)F)c(OC)c2)cc1 [Compound 310],–,–,–,–,–,–
–,3.4,1510,2.7,615,–,C=C(F)C(=O)Nc1ccc(-c2[nH]c3c(C#N)cnc(N)c3c2-c2ccc(C(=O)NCC(F)(F)F)c(OC)c2)cc1 [Compound 302],–,–,–,–,–,–
≥ 8.00,–,–,–,–,> 8.30,"C=CC(=O)Nc1ccc(-c2c(-c3ccc(C(=O)NCC(F)(F)F)c(OC)c3)c3c(N)ncc(C#N)c3n2CCOC)cc1 [Compound 318, 4-(2-(4-acrylamidophenyl)-4-amino-7-cyano-1-(2-methoxyethyl)-1H-pyrrolo[3,2-c]pyridin-3-yl)-2-methoxy-N-(2,2,2-trifluoroethyl)benzamide]",C (Selectivity of FGFR1/FGFR2 less than 200 but greater than or equal to 100),A (Selectivity of FGFR3/FGFR2 less than 150 but greater than or equal to 100),–,–,–,–
≥ 8.00,–,–,–,–,> 8.30,"C=CC(=O)Nc1ccc(-c2nn3ncnc(N)c3c2-c2ccc(C(=O)NCC(F)(F)F)c(OC)c2)c(OC)c1 [Compound 85, 4-(6-(4-acrylamido-2-methoxyphenyl)-4-aminopyrazolo[5,1-f] [1,2,4]triazin-5-yl)-2-methoxy-N-(2,2,2-trifluoroethyl)benzamide]",A+ (Selectivity of FGFR1/FGFR2 greater or equal to 500),A+ (Selectivity of FGFR3/FGFR2 greater or equal to 150),–,–,–,–
≥ 8.00,–,–,–,–,> 8.30,"C=C(F)C(=O)Nc1ccc(-c2nn3ncnc(N)c3c2-c2ccc(C(=O)NC34CC(C3)C4)c(OC)c2)c(OC)c1 [Compound 426, 4-(4-amino-6-(4-(2-fluoroacrylamido)-2-methoxyphenyl)pyrazolo[5,1-f][1,2,4]triazin-5-yl)-N-(bicyclo[1.1.1]pentan-1-yl)-2-methoxybenzamide]",A+ (Selectivity of FGFR1/FGFR2 greater or equal to 500),A (Selectivity of FGFR3/FGFR2 less than 150 but greater than or equal to 100),–,–,–,–
≥ 8.00,–,–,–,–,> 8.30,"C=C(F)C(=O)Nc1ccc(-c2nn3ncnc(N)c3c2-c2ccc(C(=O)NCC(F)(F)F)c(OC)c2)c(F)c1 [Compound 100, 4-(4-amino-6-(2-fluoro-4-(2-fluoroacrylamido)phenyl)pyrazolo[5,1-f][1,2,4]triazin-5-yl)-2-methoxy-N-(2,2,2-trifluoroethyl)benzamide]",A+ (Selectivity of FGFR1/FGFR2 greater or equal to 500),A+ (Selectivity of FGFR3/FGFR2 greater or equal to 150),–,–,–,–
≥ 8.00,–,–,–,–,> 8.30,C=CC(=O)Nc1ccc(-c2c(-c3ccc(C(=O)NC4(C)CC4)c(OC)c3)c3c(N)ncc(C#N)c3n2C)cc1 [Compound 169],A+ (Selectivity of FGFR1/FGFR2 greater or equal to 500),B (Selectivity of FGFR3/FGFR2 less than 100 but greater than or equal to 25),–,–,–,–
≥ 8.00,–,–,–,–,> 8.30,"C=C(C)C(=O)Nc1ccc(-c2c(-c3ccc(Oc4nccc(C)n4)c(F)c3)c3c(N)ncc(C#N)c3n2C)c(Cl)c1 [Compound 473, N-(4-(4-amino-7-cyano-3-(3-fluoro-4-((4-methylpyrimidin-2-yl)oxy)phenyl)-1-methyl-1H-pyrrolo[3,2-c]pyridin-2-yl)-3-chlorophenyl)methacrylamide]",A+ (Selectivity of FGFR1/FGFR2 greater or equal to 500),A+ (Selectivity of FGFR3/FGFR2 greater or equal to 150),–,–,–,–
≥ 8.00,–,–,–,–,< 8.00,C=C(C)C(=O)Nc1ccc(-c2nn3ncnc(N)c3c2-c2ccc(Oc3nccc(C)n3)c(F)c2)c(C)c1 [Compound 450],A+ (Selectivity of FGFR1/FGFR2 greater or equal to 500),B (Selectivity of FGFR3/FGFR2 less than 100 but greater than or equal to 25),–,–,–,–
–,18,3080,1.4,2360,–,C=C(F)C(=O)Nc1ccc(-c2nn3ncnc(N)c3c2-c2ccc(C(=O)NC3CC(F)(F)C3)c(OC)c2)cc1 [Compound 99],–,–,–,–,–,–
≥ 8.00,–,–,–,–,8.00 to 8.30,"C=CC(=O)Nc1ccc(-c2nn3ncnc(N)c3c2-c2ccc(C(=O)NCC)c(OC)c2)cc1 [Compound 60, 4-(6-(4-acrylamidophenyl)-4-aminopyrazolo[5,1-f] [1,2,4]triazin-5-yl)-N-ethyl-2-methoxybenzamide]",A+ (Selectivity of FGFR1/FGFR2 greater or equal to 500),A (Selectivity of FGFR3/FGFR2 less than 150 but greater than or equal to 100),–,–,–,–
≥ 8.00,–,–,–,–,> 8.30,"C=C(F)C(=O)Nc1ccc(-c2nn3ncnc(N)c3c2-c2ccc(C(=O)NCC(F)(F)F)c(OC)c2)c(C)c1 [Compound 101, 4-(4-amino-6-(4-(2-fluoroacrylamido)-2-methylphenyl)pyrazolo[5,1-f][1,2,4]triazin-5-yl)-2-methoxy-N-(2,2,2-trifluoroethyl)benzamide]",A+ (Selectivity of FGFR1/FGFR2 greater or equal to 500),B (Selectivity of FGFR3/FGFR2 less than 100 but greater than or equal to 25),–,–,–,–
≥ 8.00,–,–,–,–,> 8.30,"C=CC(=O)Nc1ccc(-c2nn3ncnc(N)c3c2-c2ccc(C(=O)NC3CC(F)(F)C3)c(OC)c2)cc1 [Compound 98, 4-(6-(4-acrylamidophenyl)-4-aminopyrazolo[5,1-f] [1,2,4]triazin-5-yl)-N-(3,3-difluorocyclobutyl)-2-methoxybenzamide]",A+ (Selectivity of FGFR1/FGFR2 greater or equal to 500),A+ (Selectivity of FGFR3/FGFR2 greater or equal to 150),–,–,–,–
≥ 8.00,–,–,–,–,> 8.30,"C=CC(=O)Nc1ccc(-c2c(-c3ccc(C(=O)NC4CCCC4)c(OC)c3)c3c(N)ncc(C#N)c3n2C)cc1 [Compound 109, 4-(2-(4-acrylamidophenyl)-4-amino-7-cyano-1-methyl-1H-pyrrolo[3,2-c]pyridin-3-yl)-N-cyclopentyl-2-methoxybenzamide]",A+ (Selectivity of FGFR1/FGFR2 greater or equal to 500),B (Selectivity of FGFR3/FGFR2 less than 100 but greater than or equal to 25),–,–,–,–
≥ 8.00,–,–,–,–,> 8.30,"C=CC(=O)Nc1ccc(-c2nn3ncnc(N)c3c2-c2ccc(C(=O)NC3CC3)c(OC)c2)c(F)c1 [Compound 155, 4-(6-(4-acrylamido-2-fluorophenyl)-4-aminopyrazolo[5,1-f] [1,2,4]triazin-5-yl)-N-cyclopropyl-2-methoxybenzamide]",A+ (Selectivity of FGFR1/FGFR2 greater or equal to 500),A (Selectivity of FGFR3/FGFR2 less than 150 but greater than or equal to 100),–,–,–,–

SMILES,pIC50 (SNU16 cells),"clearance ([1]; Sprague-Dawley, IV 3 mg/kg) [mL/min/kg]","AUC(0-inf) [1, 2] [ng·h/mL]","half-life [1, 2] [h]","Cmax [1, 3] [ng/mL]",pIC50 (FGFR2),Selectivity FGFR1/FGFR2 (FGFR1),Selectivity FGFR3/FGFR2 (FGFR3),Cl ([1]; IV 3 mg/kg) [mL/min/kg],"AUC0-∞ [1, 4] [ng·h/mL]","Cmax [1, 4] [ng/mL]","T1/2 [1, 4] [h]"
"C=C(C)C(=O)Nc1ccc(-c2c(-c3ccc(Oc4nccc(C)n4)c(F)c3)c3c(N)ncnc3n2C)cc1 [Compound 0, N-(4-(4-amino-5-(3-fluoro-4-((4-methylpyrimidin-2-yl)oxy)phenyl)-7-methyl-7H-pyrrolo[2,3-d]pyrimidin-6-yl)phenyl)methacrylamide, reference compound]",≥ 8.00,49,614,1.5,244,–,–,–,–,–,–,–
